Results: patent publication US20180338927A1, “ETHER CELLULOSE DERIVATIVE MICROPARTICLE” (Toray Industries, Inc., priority 2015, published 2018)
Counter-ions that a name gives are not always drawn.

Experiment: Comparison of supported amounts by HPLC (Test Example 8)
Format: physicochemical
Settings: porous Example 6 microparticles (Examples 10 to 15) versus raw material ethyl cellulose powder (Comparative Examples 6 to 11)
Method: The supported amount ratio of a physiologically active substance between microparticles in an example and microparticles in a comparative example supporting the same physiologically active substance was calculated on the basis of the following equation. HPLC measurement was carried out as follows. After weighing 25 mg each of the microparticles in the examples and the comparative examples, the microparticles were respectively put in 50-mL volumetric flasks. Each type of microparticles was completely dissolved in 5 mL of ethanol added, and the solution was diluted with deionized water added and passed through a 0.45-μm filter to provide an HPLC sample. The sample was measured under the same conditions as for Test Example 5.

Structure (SMILES)	Support amount ratio (=example/comparative example)
CC(=O)Nc1ccc(O)cc1 [Acetaminophen, acetaminophen]	1.4
CC(C)Cc1ccc(C(C)C(=O)O)cc1 (stereo not drawn) [Ibuprofen, ibuprofen]	1.2
C=C[C@H]1C[N@@]2CC[C@H]1C[C@H]2[C@H](O)c1ccnc2ccc(OC)cc12 [Quinine hydrochloride dihydrate, quinine hydrochloride dihydrate]	1.8

Now from value to compound:

Support amount ratio (=example/comparative example)	Structure (SMILES)
1.6	O=C(O)c1ccccc1O [Salicylic acid, salicylic acid]
1.2	Cn1c(=O)c2[nH]cnc2n(C)c1=O [Theophylline, theophylline]
10.7	Cc1ncc(C[n+]2csc(CCO)c2C)c(N)n1 [Thiamine hydrochloride, thiamine hydrochloride]
